Experimental data: patent US9598399B2, “Compound suitable for detection of mitochondrial complex-1” (HAMAMATSU PHOTONICS K.K., priority 2012, dated 2017)

What was measured:
[1] = system: site of ischemic disorder in the brain; experiment: PET analysis of rat cerebral infarction (PIT) model with blocked middle cerebral artery; type: in vivo; details: for accumulation of probe in site of ischemic disorder: Normal, Day-1, Day-7, PET 60 minutes
Procedure: The rat was subjected to anesthesia induction using 4% halothane (30% O2, 70% room air), and during the surgery, the halothane concentration was maintained at 1.5% to 2%. The skin was incised along the left eye cavity margin under a surgical microscope, and an elliptical window (hole) having a size of about 3 mm was cut open in the lower cranium using a dental drill so that the left middle cerebral artery could be seen under the dura mater. Photosensitizer Rose Bengal (20 mg/kg) was administered through the tail vein of the rat, the middle cerebral artery was irradiated with green light having a wavelength of 540 nm for 10 minutes, and thus cerebral infarction was developed in the rat.
In the respective rats before the onset of cerebral infarction (Normal), 1 day after the onset of cerebral infarction (Day-1), and 7 days after the onset of cerebral infarction (Day-7), glucose metabolism (using [^18F]FDG as a probe) and the activity of mitochondrial Complex-1 (using [^18F]BMS or [^18F]BCPP-EF as a probe) in the sites of ischemic disorder in the brain were monitored by the PET method. Specifically, each of the probes was bolus administered in an amount of 6 to 8 MBq/animal through the tail vein of the rat, and the analysis was carried out for 60 minutes. During the analysis, the rat was inactivated by continuously administering chloral hydrate (100 mg/kg/hr) through the tail vein of the rat.

mitochondrial Complex-1 [2] = experiment: Autoradiography using living rat brain slices, inhibition of probe binding by rotenone; details: for binding inhibitory effect by rotenone on probe binding: rotenone 2-20000 nM, probe 1 MBq/ml, FIGS. 3 and 4
Procedure: A rat was anesthetized with chloral hydrate (400 mg/kg; I.P.) and decapitated. Thereafter, the brain was immediately sampled and cooled sufficiently, and the cooled brain was immersed in ACSF (artificial cerebrospinal fluid) in a sherbet state. A necessary block of the obtained brain was cut and adhered to a fixing platform of a vibration microtome HM650V (Thermo Fisher Scientific, Inc., Waltham, USA). Thereafter, brain slices having a thickness of 300 μm were produced. The cut brain slices were immersed in 24 ml of ACSF for 30 minutes under bubbling with O2, and thus the activities of cells were calmed. Thereafter, 20 μL of Vehicle or Rotenone (adjusted to concentrations of 2 nM, 20 nM, 200 nM, and 20000 nM in respective beakers) was added to ACSF, and the mixture was bubbled for 30 minutes. Furthermore, 1 MBq/ml of [^18F]BMS or [^18F]BCPP-EF was added to the ACSF, and bubbling was continued for 30 minutes. After completion of the bubbling, the brain slices were taken out and transferred to 100 ml of fresh ACSF. Subsequently, excess RI was washed away by bubbling the ACSF for another 30 minutes. Thereafter, the brain slices were arranged in a row on an OHP sheet, and an image thereof was captured with a scanner (Epson: GT-600). Subsequently, the OHP sheet having the brain slices arranged in a row thereon was placed on an imaging plate (ST-VI, Fujifilm Corp., Tokyo) having sensitivity to radiation, and the OHP sheet was left to stand for about one hour in the dark (contact). The imaging plate was subjected to detection with a Fluoro Image Analyzer, FLA-7000 (Fujifilm Corp., Tokyo).

Oil-solubility (log P) = type: physicochemical
mitochondrial Complex-1 [3] = experiment: In vitro autoradiography of rat brain slices and in vivo PET of living rat brain (background evaluation of [18F]BMS)
Source text: On the other hand, it has been reported that [^18F]BMS-747158-02 (2-tert-butyl-4-chloro-5-[4-(2-fluoroethoxymethyl)-benzyloxy]-2H-pyridazin-3-one, [^18F]BMS) serves as a PET probe that recognizes mitochondrial Complex-1 (hereinafter, may be referred to as “MC-1”), and this compound is used in a functional evaluation of the brain or the heart (Patent Literature 1 and Non-Patent Literature 1).

mitochondrial Complex-1 [4] = experiment: PET analysis of rotenone-administered rat (brain and heart); type: in vivo; details: rat cerebellum, cerebral cortex, corpus striatum and heart; rotenone 0.1 mg/kg/h i.v.; FIGS. 5 and 6
Procedure: A rat was anesthetized with chloral hydrate (400 mg/kg; I.P.) and was immobilized on a bed for measurement. Immediately thereafter, rotenone (0.1 mg/kg/h) or a vehicle was administered through the tail vein of the rat. In order to identify the position of the brain during the administration, an analysis was carried out using Clairvivo-CT (Shimadzu Corp.). Thereafter, the bed for measurement was moved to Clairvivo PET. After the administration of rotenone (0.1 mg/kg/h) or the vehicle was completed, [^18F]BMS or [^18F]BCPP-EF was immediately bolus administered in an amount of about 8 MBq/animal through the tail vein of the rat, and the measurement was carried out for 60 minutes. During the measurement, chloral hydrate (100 mg/kg/hr) was continuously administered through the tail vein of the rat, and thereby the rat was inactivated.

mitochondrial Complex-1 [5] = experiment: PET experiment on inhibition of binding to mitochondrial Complex-1 by rotenone administration in monkey brain; type: in vivo; details: compared with [18F]BMS
Procedure: (§1) Cephalic vein or saphenous vein was secured as the route of intravenous administration to the test animal, and femoral artery or posterior tibial artery was secured as the route for collecting arterial blood. First, the amount of radioactivity of [^18F]BMS, [^18F]BCPP-EF or [^11C]BCPP-EM was measured. As radioactive agents, [^18F]BMS and [^18F]BCPP-EF were administered through an indwelling needle indwelled in a test animal in an amount of administration of 300 to 500 MBq, and [^11C]BCPP-EM was administered in an amount of administration of 800 to 1200 MBq, such that the entire amount of the radioactive agent was intravenously administered over about 30 seconds. Simultaneously with the initiation of administration of the radioactive agent, measurement of emission (6 frames of 10 seconds, 6 frames of 30 seconds, 12 frames of 1 minute, 25 frames of 3 minutes, and 6 frames of 5 minutes; 55 frames for 121 minutes in total) was initiated.
In the experiment on the inhibition of PET probe binding by rotenone administration in the brain of a monkey, rotenone was administered to the test animal by intravenous injection in an amount of 0.1 mg/kg/hr. Subsequently, [^18F]BMS, [^18F]BCPP-EF or [^11C]BCPP-EM was administered as a probe, and a PET analysis was carried out.

mitochondrial Complex-1 [6] = experiment: PET analysis of intracerebral activity of mitochondrial Complex-1 in young and aged monkey; type: in vivo; details: young monkey (5 years old) versus aged monkey (22 years old), FIG. 10
Procedure: as §1
The results of a PET analysis obtained from a young monkey (5 years old) and an aged monkey (22 years old) are presented in FIG. 10. [^18F]BCPP-EF was used as the PET probe.

mitochondrial Complex-1 [7] = experiment: PET analysis of intracerebral activity of mitochondrial Complex-1 in Parkinson's disease model monkey; type: in vivo, Macaca fascicularis; details: Parkinson's disease (MPTP) model monkey versus normal monkey, FIG. 11
Procedure: as §1, with “Simultaneously with the initiation of administration of the radioactive agent, measurement of emission (6 frames of 10 seconds, 6 frames of 30 seconds, 12 frames of 1 minute, 25 frames of 3 minutes, and 6 frames of 5 minutes; 55 frames for 121 minutes in total) was initiated.” left out
A comparison of the intracerebral activity of mitochondrial Complex-1 was made between a normal monkey and a Parkinson's disease model monkey by a PET analysis. […] The degree of motility disturbance in the limbs was evaluated by observing the way that the Macaca fascicularis monkey picked up the feed, and also, by measuring the decrease in the sites of dopamine reabsorption using a PET analysis, it was finally confirmed that the Macaca fascicularis monkey had the condition of Parkinson's disease.

OC[C@H]1OC(O)[C@H]([18F])[C@@H](O)[C@@H]1O (stereo partly shown) [[^18F]FDG, ^18F-fluorodeoxyglucose]
accumulation of probe in site of ischemic injury of the brain ([1]; cerebral infarction model rat, PET, background statement): accumulation of [^18F]FDG is increased
accumulation of probe in site of ischemic disorder ([1]; rat PIT model, FIG. 7): accumulation of [^18F]FDG increased in the site of ischemic disorder

CC(C)(C)n1ncc(OCc2ccc(OCCCC[18F])nc2)c(Cl)c1=O [[^18F]BCPP-BF]
binding inhibitory effect by rotenone on probe binding (mitochondrial Complex-1 [2]): affected by the binding inhibitory effect of rotenone

CC(C)(C)n1ncc(OCc2ccc(COCCF)cc2)c(Cl)c1=O [[^18F]BMS, 2-tert-butyl-4-chloro-5-[4-(2-fluoroethoxymethyl)-benzyloxy]-2H-pyridazin-3-one]
accumulation of probe in site of ischemic disorder ([1]; rat PIT model, FIG. 7): no accumulation of the probe was observed in the site of ischemic disorder
logP (Oil-solubility (log P)): 1.42
non-specific binding capacity (mitochondrial Complex-1 [3]; rat brain): high non-specific binding capacity
inhibitory effect in inhibition experiment using rotenone (mitochondrial Complex-1 [3]; rotenone, inhibitory drug specific to Complex-1): an inhibitory effect cannot be sufficiently checked

CC(C)(C)n1ncc(OCc2ccc(OCCOCC[18F])nc2)c(Cl)c1=O [[^18F]BCPP-EF]
specificity to mitochondrial Complex-1 (mitochondrial Complex-1 [2]; compared with [18F]BMS): higher specificity to mitochondrial Complex-1 than [^18F]BMS
binding inhibitory effect by rotenone on probe binding (mitochondrial Complex-1 [2]): more likely to be affected by the binding inhibitory effect by rotenone than [^18F]BMS
uptake quantity of probe after administration of rotenone (mitochondrial Complex-1 [4]): further reduced by the administration of rotenone than that of [^18F]BMS
accumulation of probe in site of ischemic disorder ([1]; rat PIT model, FIG. 7): no accumulation of the probe was observed in the site of ischemic disorder
degree of accumulation of probe, site of ischemic disorder versus normal site ([1]; rat PIT model, compared with [18F]BMS, FIG. 7): clearly different between a site of ischemic disorder and a normal site
specificity to mitochondrial Complex-1 (mitochondrial Complex-1 [5]): higher specificity to mitochondrial Complex-1 than [^18F]BMS
binding inhibitory effect of rotenone on probe binding (mitochondrial Complex-1 [5]; rotenone 0.1 mg/kg/hr i.v., FIGS. 8 and 9): more likely to be affected by the binding inhibitory effect of rotenone
amount of PET probe accumulated in the brain (mitochondrial Complex-1 [6]): a larger amount of the PET probe was accumulated in the brain in the young monkey than in the aged monkey
amount of PET probe accumulating in the brain (mitochondrial Complex-1 [7]): smaller in the Parkinson's disease model monkey, compared with the normal monkey
